“And” between values parts separate entries of the source, which are not always exact repeats. Equal entries are not always repeated. Toxic doses and inconclusive results are not listed. Cut-off read from the data, not from the text of the source: active = T/C of 150% or more; inactive = T/C below 125%.
Tested on: L1210 leukemia ip in BDF1 mice, survival T/C
Assay: NCI In Vivo Anticancer Drug Screen. Data for tumor model L1210 Leukemia (intraperitoneal) in B6D2F1 (BDF1) mice
Settings: endpoint: mean survival time, higher = longer survival
Method in brief: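 Value reflects the ratio of survival in compound-treated mice to survival in vehicle-treated controls, with both groups carrying the same transplanted tumor.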

[1] = dose: 100.0 mg/kg/injection, schedule: Q01DX009 (ip), vehicle: Klucel (hydroxypropylcellulose) (HPC)
[2] = dose: 200.0 mg/kg/injection, schedule: Q01DX009 (ip), vehicle: Klucel (hydroxypropylcellulose) (HPC)
[3] = dose: 400.0 mg/kg/injection, schedule: Q01DX009 (ip), vehicle: Klucel (hydroxypropylcellulose) (HPC)
[4] = dose: 200.0 mg/kg/injection, schedule: Q01DX009 (ip), vehicle: other
[5] = dose: 400.0 mg/kg/injection, schedule: Q01DX009 (ip), vehicle: other
[6] = dose: 50.0 mg/kg/injection, schedule: Q01DX009 (ip), vehicle: saline with Tween-80
[7] = dose: 100.0 mg/kg/injection, schedule: Q01DX009 (ip), vehicle: saline with Tween-80
[8] = dose: 200.0 mg/kg/injection, schedule: Q01DX009 (ip), vehicle: saline with Tween-80
[9] = dose: 100.0 mg/kg/injection, schedule: Q04DX002 (sc), vehicle: olive oil, sesame oil, peanut oil
[10] = dose: 200.0 mg/kg/injection, schedule: Q04DX002 (sc), vehicle: olive oil, sesame oil, peanut oil
[11] = dose: 400.0 mg/kg/injection, schedule: Q04DX002 (sc), vehicle: olive oil, sesame oil, peanut oil
[12] = dose: 100.0 mg/kg/injection, schedule: Q04DX002 (ip), vehicle: Klucel (hydroxypropylcellulose) (HPC)
[13] = dose: 200.0 mg/kg/injection, schedule: Q04DX002 (ip), vehicle: Klucel (hydroxypropylcellulose) (HPC)
[14] = dose: 100.0 mg/kg/injection, schedule: Q01DX001 (ip), vehicle: saline
[15] = dose: 200.0 mg/kg/injection, schedule: Q01DX001 (ip), vehicle: saline
[16] = dose: 400.0 mg/kg/injection, schedule: Q01DX001 (ip), vehicle: saline
[17] = dose: 100.0 mg/kg/injection, schedule: Q04DX003 (ip), vehicle: Klucel (hydroxypropylcellulose) (HPC)
[18] = dose: 200.0 mg/kg/injection, schedule: Q04DX003 (ip), vehicle: Klucel (hydroxypropylcellulose) (HPC)
[19] = dose: 400.0 mg/kg/injection, schedule: Q04DX003 (ip), vehicle: Klucel (hydroxypropylcellulose) (HPC)
[20] = dose: 100.0 mg/kg/injection, schedule: Q01DX001 (ip), vehicle: carboxymethylcellulose (CMC)
[21] = dose: 200.0 mg/kg/injection, schedule: Q01DX001 (ip), vehicle: carboxymethylcellulose (CMC)
[22] = dose: 400.0 mg/kg/injection, schedule: Q01DX001 (ip), vehicle: carboxymethylcellulose (CMC)

Measured: T/C

c1cc2ccc1CCc1ccc(cc1)CC2
inactive: dose: 100.0 mg/kg/injection, schedule: Q01DX001 (ip), vehicle: saline with Tween-80 100 % of control | dose: 100.0 mg/kg/injection, schedule: Q01DX009 (ip), vehicle: saline sonified 94 % of control | dose: 200.0 mg/kg/injection, schedule: Q01DX001 (ip), vehicle: saline with Tween-80 102 % of control | dose: 200.0 mg/kg/injection, schedule: Q01DX009 (ip), vehicle: saline sonified 99 % of control | dose: 400.0 mg/kg/injection, schedule: Q01DX001 (ip), vehicle: saline with Tween-80 98 % of control | dose: 400.0 mg/kg/injection, schedule: Q01DX009 (ip), vehicle: saline sonified 93 % of control

CSc1ncnc2n[nH]c(Br)c12
inactive: dose: 100.0 mg/kg/injection, schedule: Q01DX005 (ip), vehicle: saline 93 % of control

CCCCCCCCCCCCCCCC(C1CCCC1)C1CCCC1
inactive: dose: 75.0 mg/kg/injection, schedule: Q01DX001 (ip), vehicle: saline with Tween-80 99 % of control | dose: 150.0 mg/kg/injection, schedule: Q01DX001 (ip), vehicle: saline with Tween-80 97 % of control | dose: 300.0 mg/kg/injection, schedule: Q01DX001 (ip), vehicle: saline with Tween-80 101 % of control

CCCCCCCCCCCCCCCCOc1ccc(C(=O)CC(=O)OC)cc1
inactive: [1] 93 % of control | dose: 100.0 mg/kg/injection, schedule: Q04DX003 (ip), vehicle: other 94 % of control | [2] 92 % of control | dose: 200.0 mg/kg/injection, schedule: Q04DX003 (ip), vehicle: other 101 % of control | [3] 92 % of control | dose: 400.0 mg/kg/injection, schedule: Q04DX003 (ip), vehicle: other 94 % of control

Cc1c2ccncc2c(C)c2c1oc1ccccc12
inactive: [4] 91 % of control | [5] 95 % of control

O=C(CNC(=O)Nc1ccc(Cl)c(Cl)c1)N/N=C/c1ccccc1F
inactive: [6] 93 % of control | [7] 89 % of control | [8] 89 % of control

C(=C(/c1ccccc1)N1CCOCC1)/c1ccccc1
inactive: [9] 118 % of control | [10] 99 % of control | [11] 99 % of control

CCC(Cl)COP(=O)(OCC(Cl)CC)C(C)P(=O)(OCC(Cl)CC)OCC(Cl)CC (configuration not stated)
inactive: dose: 62.5 mg/kg/injection, schedule: Q04DX003 (ip), vehicle: Klucel (hydroxypropylcellulose) (HPC) 96 % of control | dose: 125.0 mg/kg/injection, schedule: Q04DX003 (ip), vehicle: Klucel (hydroxypropylcellulose) (HPC) 97 % of control | dose: 250.0 mg/kg/injection, schedule: Q04DX003 (ip), vehicle: Klucel (hydroxypropylcellulose) (HPC) 96 % of control

CCOC(=O)C/C(=N\Nc1ccc([N+](=O)[O-])cc1[N+](=O)[O-])c1ccccc1
inactive: dose: 100.0 mg/kg/injection, schedule: Q04DX003 (ip), vehicle: saline sonified 96 % of control | dose: 200.0 mg/kg/injection, schedule: Q04DX003 (ip), vehicle: saline sonified 96 % of control | dose: 400.0 mg/kg/injection, schedule: Q04DX003 (ip), vehicle: saline sonified 91 % of control

CCOC(C(=O)O)(c1ccccc1)c1ccccc1
inactive: [12] 97 % of control | [13] 97 % of control

O=C(O)c1cccc2c1OCO2
inactive: [6] 112 % of control | [7] 98 % of control | dose: 100.0 mg/kg/injection, schedule: Q04DX002 (ip), vehicle: saline with Tween-80 103 % of control | [8] 98 % of control | dose: 200.0 mg/kg/injection, schedule: Q04DX002 (ip), vehicle: saline with Tween-80 95 % of control

CC(C)(CS(C)(=O)=O)C(=O)O
inactive: [14] 98 % of control | dose: 100.0 mg/kg/injection, schedule: Q01DX009 (ip), vehicle: saline 89 % of control | [15] 98 % of control | [16] 101 % of control | dose: 400.0 mg/kg/injection, schedule: Q01DX009 (ip), vehicle: saline 91 % of control

O=[N+]([O-])c1cc(Cl)cc(Br)c1O
inactive: dose: 12.5 mg/kg/injection, schedule: Q04DX003 (ip), vehicle: Klucel (hydroxypropylcellulose) (HPC) 100 % of control | dose: 25.0 mg/kg/injection, schedule: Q04DX003 (ip), vehicle: Klucel (hydroxypropylcellulose) (HPC) 102 % of control | dose: 50.0 mg/kg/injection, schedule: Q04DX003 (ip), vehicle: Klucel (hydroxypropylcellulose) (HPC) 105 % of control | [17] 103 % of control

S=c1[nH]nc2ccccn12
inactive: [17] 100 % of control | [18] 94 % of control | [19] 94 % of control

COC1(OC)C2C(Cl)=C(Cl)C1(Cl)C(Br)C2c1ccccc1 (configuration not stated)
inactive: [20] 97 % of control | [21] 92 % of control | [22] 103 % of control

CCC1(CCCCCCC(=O)CC(C)=O)OCCO1
inactive: [1] 105 % of control | [2] 104 % of control | [3] 91 % of control

CCC(N)C(O)C(F)(F)C(F)(F)C(F)(F)F (configuration not stated)
inactive: [14] 112 % of control | [15] 103 % of control

CCC(Cl)COP(=O)(OCC(Cl)CC)O/C(C)=C(\C)OP(=S)(OCC(Cl)CC)OCC(Cl)CC (configuration not stated)
inactive: [9] 108 % of control | [10] 102 % of control | [11] 102 % of control

CCCCC(=O)NC(O)C(Cl)(Cl)C(C)Cl (configuration not stated)
inactive: dose: 50.0 mg/kg/injection, schedule: Q01DX001 (ip), vehicle: other 112 % of control | dose: 100.0 mg/kg/injection, schedule: Q01DX001 (ip), vehicle: other 91 % of control | dose: 200.0 mg/kg/injection, schedule: Q01DX001 (ip), vehicle: other 101 % of control | dose: 400.0 mg/kg/injection, schedule: Q01DX001 (ip), vehicle: other 101 % of control

Cc1ccc(NC(=O)OCCSCCOC(=O)Nc2ccc(C)cc2)cc1
inactive: dose: 100.0 mg/kg/injection, schedule: Q01DX009 (ip), vehicle: other 89 % of control | [4] 89 % of control | [5] 97 % of control

COc1cccc(NC(=S)NC(=O)c2ccccc2)c1
inactive: [12] 110 % of control | [13] 92 % of control | dose: 400.0 mg/kg/injection, schedule: Q04DX002 (ip), vehicle: Klucel (hydroxypropylcellulose) (HPC) 103 % of control

COC1OC(COC(=O)c2ccc([N+](=O)[O-])cc2)C2OC12 (configuration not stated)
inactive: [20] 100 % of control | [14] 101 % of control | [21] 95 % of control | [15] 101 % of control and 109 % of control | [22] 89 % of control | [16] 101 % of control

C1CCC(CCNCCC2CCCCC2)CC1
inactive: dose: 5.0 mg/kg/injection, schedule: Q01DX001 (ip), vehicle: saline 102 % of control | dose: 10.0 mg/kg/injection, schedule: Q01DX001 (ip), vehicle: saline 102 % of control | dose: 20.0 mg/kg/injection, schedule: Q01DX001 (ip), vehicle: saline 104 % of control

CC1=C2CCC(C)CC23C2C(=O)OC(=O)C2C1C1C(=O)OC(=O)C13 (configuration not stated)
inactive: dose: 25.0 mg/kg/injection, schedule: Q01DX009 (ip), vehicle: saline 100 % of control | dose: 50.0 mg/kg/injection, schedule: Q04DX003 (ip), vehicle: saline 101 % of control | [14] 93 % of control | dose: 100.0 mg/kg/injection, schedule: Q04DX003 (ip), vehicle: saline 90 % of control | [15] 108 % of control

C[CH2][Pb]([CH2]C)([CH2]C)[N](C#N)C(=N)N
inactive: dose: 25.0 mg/kg/injection, schedule: Q04DX002 (ip), vehicle: Klucel (hydroxypropylcellulose) (HPC) 97 % of control | dose: 50.0 mg/kg/injection, schedule: Q04DX002 (ip), vehicle: Klucel (hydroxypropylcellulose) (HPC) 101 % of control

O=C(Cc1ccccc1)OCC#CC#CCOC(=O)Cc1ccccc1
inactive: [1] 103 % of control | [17] 92 % of control | [2] 98 % of control | [18] 91 % of control | [3] 97 % of control | [19] 92 % of control

— PubChem BioAssay AID248 (DTP/NCI, 2004)
